# Tests used:
# Experiment in all cases: relative viability (nuclei count vs DMSO), 5 days (fraction); higher = more cells survive
# HCC-78 = tested on: HCC-78
# How it was run: (§1)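 Values are medians from duplicate plates. Each reflects relative viability, defined as the nuclei count of treated wells over that of vehicle wells. Lung cancer cell lines in 1536-well plates were pin-tool dosed one day after seeding with one drug alone or with a fixed anchor-drug dose plus five library-drug doses (not always all listed) in √10 steps, then fixed, stained and imaged at 4× after 5 days.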
# RERF-LC-KJ = tested on: RERF-LC-KJ
# How it was run: as §1
# NCI-H23 = tested on: NCI-H23
# How it was run: as §1
# 201T = tested on: 201T
# How it was run: as §1
# NCI-H1666 = tested on: NCI-H1666
# How it was run: as §1
# NCI-H1915 = tested on: NCI-H1915
# How it was run: as §1
# NCI-H2347 = tested on: NCI-H2347
# How it was run: as §1
# NCI-H661 = tested on: NCI-H661
# How it was run: as §1
# LC-2-ad = tested on: LC-2-ad
# How it was run: as §1
# NCI-H650 = tested on: NCI-H650
# How it was run: as §1
# EPLC-272H = tested on: EPLC-272H
# How it was run: as §1
smiles,measurement,setting,value
C=C1C(=O)O[C@@H](CCCCCCCC)[C@@H]1C(=O)O [C-75] + Cc1nc(NC(=O)N2CCC[C@H]2C(N)=O)sc1-c1ccnc(C(C)(C)C(F)(F)F)c1 [Alpelisib] (partner 2 µM),relative viability,HCC-78; first compound 0.08 µM,0.297
same,relative viability,HCC-78; first compound 0.253 µM,0.318
same,relative viability,HCC-78; first compound 0.8 µM,0.354
same,relative viability,HCC-78; first compound 2.53 µM,0.336
same,relative viability,HCC-78; first compound 8 µM,0.408
same,relative viability,RERF-LC-KJ; first compound 0.08 µM,0.834
same,relative viability,RERF-LC-KJ; first compound 0.253 µM,0.875
same,relative viability,RERF-LC-KJ; first compound 0.8 µM,0.817
same,relative viability,RERF-LC-KJ; first compound 2.53 µM,0.765
same,relative viability,RERF-LC-KJ; first compound 8 µM,0.979
same,relative viability,NCI-H23; first compound 0.08 µM,0.546
same,relative viability,NCI-H23; first compound 0.253 µM,0.818
same,relative viability,NCI-H23; first compound 0.8 µM,0.565
same,relative viability,NCI-H23; first compound 2.53 µM,0.618
same,relative viability,NCI-H23; first compound 8 µM,0.505
same,relative viability,201T; first compound 0.08 µM,0.981
same,relative viability,201T; first compound 0.253 µM,1.08
same,relative viability,201T; first compound 0.8 µM,1.02
same,relative viability,201T; first compound 2.53 µM,0.975
same,relative viability,201T; first compound 8 µM,1.07
same,relative viability,NCI-H1666; first compound 0.08 µM,0.908
same,relative viability,NCI-H1666; first compound 0.253 µM,1.13
same,relative viability,NCI-H1666; first compound 0.8 µM,0.879
same,relative viability,NCI-H1666; first compound 2.53 µM,0.987
same,relative viability,NCI-H1666; first compound 8 µM,0.71
same,relative viability,NCI-H1915; first compound 0.08 µM,1.06
same,relative viability,NCI-H1915; first compound 0.253 µM,1.09
same,relative viability,NCI-H1915; first compound 0.8 µM,1.07
same,relative viability,NCI-H1915; first compound 2.53 µM,0.51
same,relative viability,NCI-H1915; first compound 8 µM,1.01
same,relative viability,NCI-H2347; first compound 0.08 µM,1.01
same,relative viability,NCI-H2347; first compound 0.253 µM,0.987
same,relative viability,NCI-H2347; first compound 0.8 µM,1.12
same,relative viability,NCI-H2347; first compound 2.53 µM,0.956
same,relative viability,NCI-H2347; first compound 8 µM,1.09
same,relative viability,NCI-H661; first compound 0.08 µM,0.545
same,relative viability,NCI-H661; first compound 0.253 µM,0.477
same,relative viability,NCI-H661; first compound 0.8 µM,0.657
same,relative viability,NCI-H661; first compound 2.53 µM,0.409
same,relative viability,NCI-H661; first compound 8 µM,0.718
same,relative viability,LC-2-ad; first compound 0.08 µM,0.838
same,relative viability,LC-2-ad; first compound 0.253 µM,0.822
same,relative viability,LC-2-ad; first compound 0.8 µM,0.828
same,relative viability,LC-2-ad; first compound 8 µM,0.891
same,relative viability,NCI-H650; first compound 0.08 µM,1.1
same,relative viability,NCI-H650; first compound 0.253 µM,0.874
same,relative viability,NCI-H650; first compound 0.8 µM,1.08
same,relative viability,NCI-H650; first compound 2.53 µM,1.06
same,relative viability,NCI-H650; first compound 8 µM,1.04
same,relative viability,EPLC-272H; first compound 0.08 µM,0.95
same,relative viability,EPLC-272H; first compound 0.253 µM,1.03
same,relative viability,EPLC-272H; first compound 0.8 µM,0.873
same,relative viability,EPLC-272H; first compound 2.53 µM,0.732
same,relative viability,EPLC-272H; first compound 8 µM,0.862
